Experimental data: ChEMBL document CHEMBL5537196, “Discovery of KIN-3248, An Irreversible, Next Generation FGFR Inhibitor for the Treatment of Advanced Tumors Harboring FGFR2 and/or FGFR3 Gene Alterations” (J Med Chem, 2024)

Key:
SNU-16 = assay: Antiproliferative activity against human SNU-16 cells assessed as inhibition of cell growth incubated for 5 days by Cell-titer glo assay; settings: SNU-16, 120 h
CC-LP-1 [1] = assay: Antiproliferative activity against human CC-LP-1 cells assessed as inhibition of cell growth incubated for 3 days by Cell-titer glo assay; settings: CC-LP-1, 72 h
CC-LP-1 [2] = assay: Antiproliferative activity against human CC-LP-1 cells expressing FGFR2 V565F mutant assessed as inhibition of cell growth incubated for 3 days by Cell-titer glo assay; settings: CC-LP-1, 72 h
CC-LP-1 [3] = assay: Antiproliferative activity against human CC-LP-1 cells expressing FGFR2 N550H mutant assessed as inhibition of cell growth incubated for 3 days by Cell-titer glo assay; type: functional, cell-based; settings: CC-LP-1, 72 h
CC-LP-1 [4] = assay: Antiproliferative activity against human CC-LP-1 cells expressing FGFR2 N550K mutant assessed as inhibition of cell growth incubated for 3 days by Cell-titer glo assay; settings: CC-LP-1, 72 h
[5] = Antiproliferative activity against human ICC13-7 cells assessed as inhibition of cell growth incubated for 3 days by Cell-titer glo assay; settings: ICC13-7, 72 h
[6] = Antiproliferative activity against human ICC13-7 cells expressing FGFR2 V565F mutant assessed as inhibition of cell growth incubated for 10 days by Cell-titer glo assay; settings: ICC13-7, 240 h
[7] = Antiproliferative activity against human ICC13-7 cells expressing FGFR2 N550K mutant assessed as inhibition of cell growth incubated for 10 days by Cell-titer glo assay; settings: ICC13-7, 240 h
RT-112 [8] = assay: Antiproliferative activity against human RT-112 cells assessed as inhibition of cell growth incubated for 5 days by Cell-titer glo assay; settings: RT-112, 120 h
RT-112 [9] = assay: Antiproliferative activity against human RT-112 cells expressing FGFR3 assessed as inhibition of cell growth incubated for 5 days by Cell-titer glo assay; settings: RT-112, 120 h
RT-112 [10] = assay: Antiproliferative activity against human RT-112 cells expressing FGFR3 V555M mutant assessed as inhibition of cell growth incubated for 5 days by Cell-titer glo assay; settings: RT-112, 120 h
RT-112 [11] = assay: Antiproliferative activity against human RT-112 cells expressing FGFR3 N540K mutant assessed as inhibition of cell growth incubated for 5 days by Cell-titer glo assay; settings: RT-112, 120 h
RT-112 [12] = assay: Antiproliferative activity against human RT-112 cells expressing FGFR3 K650M mutant assessed as inhibition of cell growth incubated for 5 days by Cell-titer glo assay; settings: RT-112, 120 h
[13] = Half life in Sprague-Dawley rat at 5 mg/kg,iv administrated at 0.25 to 24 hrs by LC-MS/MS analysis; type: ADME, organism-based; settings: in vivo, time 0.25-24 hrs
[14] = Total clearance in Sprague-Dawley rat at 5 mg/kg,iv administrated at 0.25 to 24 hrs by LC-MS/MS analysis; type: ADME, organism-based; settings: in vivo, time 0.25-24 hrs
[15] = Cmax in Sprague-Dawley rat at 15 mg/kg,po administrated at 0.25 to 24 hrs by LC-MS/MS analysis; type: ADME, organism-based; settings: in vivo, time 0.25-24 hrs
[16] = AUC (0 to 24 hrs) in Sprague-Dawley rat at 15 mg/kg,po administrated at 0.25 to 24 hrs by LC-MS/MS analysis; type: ADME, organism-based; settings: in vivo, time 0.25-24 hrs
[17] = Oral bioavailability in Sprague-Dawley rat at 15 mg/kg administrated at 0.25 to 24 hrs by LC-MS/MS analysis; type: ADME, organism-based; settings: in vivo, time 0.25-24 hrs
[18] = Half life in Beagle dog at 5 mg/kg,iv administrated at 0.25 to 24 hrs by LC-MS/MS analysis; type: ADME, organism-based, Canis lupus familiaris; settings: in vivo, time 0.25-24 hrs
[19] = Total clearance in Beagle dog at 5 mg/kg,iv administrated at 0.25 to 24 hrs by LC-MS/MS analysis; type: ADME, organism-based, Canis lupus familiaris; settings: in vivo, time 0.25-24 hrs
[20] = Cmax in Beagle dog at 15 mg/kg,po administrated at 0.25 to 24 hrs by LC-MS/MS analysis; type: ADME, organism-based, Canis lupus familiaris; settings: in vivo, time 0.25-24 hrs
[21] = AUC (0 to 24 hrs) in Beagle dog at 15 mg/kg,po administrated at 0.25 to 24 hrs by LC-MS/MS analysis; type: ADME, organism-based, Canis lupus familiaris; settings: in vivo, time 0.25-24 hrs
[22] = Oral bioavailability in Beagle dog at 15 mg/kg administrated at 0.25 to 24 hrs by LC-MS/MS analysis; type: ADME, organism-based, Canis lupus familiaris; settings: in vivo, time 0.25-24 hrs
[23] = Intrinsic clearance in human liver microsomes; type: ADME, Microsome; settings: read-out: CLH
[24] = Intrinsic clearance in human hepatocyte measured per 10^6 cells; type: ADME, cell-based; settings: hepatocytes, read-out: CLH
[25] = Cmax in Beagle dog at 10 mg/kg,po administrated at 0.25 to 24 hrs by LC-MS/MS analysis; type: ADME, organism-based, Canis lupus familiaris; settings: in vivo, time 0.25-24 hrs
[26] = AUC (0 to 24 hrs) in Beagle dog at 10 mg/kg,po administrated at 0.25 to 24 hrs by LC-MS/MS analysis; type: ADME, organism-based, Canis lupus familiaris; settings: in vivo, time 0.25-24 hrs
[27] = Oral bioavailability in Beagle dog at 10 mg/kg administrated at 0.25 to 24 hrs by LC-MS/MS analysis; type: ADME, organism-based, Canis lupus familiaris; settings: in vivo, time 0.25-24 hrs

SMILES | IC50 (SNU-16) [nM] | IC50 (CC-LP-1 [1]) [nM] | IC50 (CC-LP-1 [2]) [nM] | IC50 (CC-LP-1 [3]) [nM] | IC50 (CC-LP-1 [4]) [nM] | IC50 [5] [nM] | IC50 [6] [nM] | IC50 [7] [nM] | IC50 (RT-112 [8]) [nM] | IC50 (RT-112 [9]) [nM] | IC50 (RT-112 [10]) [nM] | IC50 (RT-112 [11]) [nM] | IC50 (RT-112 [12]) [nM] | half-life [13] [min] | clearance [14] [mL/min/kg] | Cmax [15] [ng/mL] | AUC(0-t) [16] [ng·h/mL] | bioavailability [17] [%] | half-life [18] [min] | clearance [19] [mL/min/kg] | other results
COc1cc(OC)cc(N(CCNC(C)C)c2ccc3ncc(-c4cnn(C)c4)nc3c2)c1 [ERDAFITINIB] | 2.7 | 2.3 | 1370 | 10.8 | 94.8 | 1.1 | > 2800 | 131 | 1.3 | 2.4 | 603 | 107 | 39 | – | – | – | – | – | – | – | –
C=CC(=O)N1C[C@@H](n2nc(C#Cc3cc4ncn(C5CC5)c4cc3F)c(C(N)=O)c2NC)C[C@@H]1COC | 4 | 2.3 | 1.5 | – | 3.6 | 1.4 | 1.4 | 3.5 | – | – | – | – | – | 531 | 25 | 760 | 2620 | 27 | 684 | 31.8 | Cmax [20]: 770 ng/mL; AUC(0-t) [21]: 1700 ng·h/mL; bioavailability [22]: 23.5%; microsomal CLint [23]: 97.1 µL/min/mg; hepatocyte CLint [24]: 12 µL/min/1e6 cells
C=CC(=O)N1C[C@@H](n2nc(C#Cc3cc4ncn(C5CC5)c4cc3Cl)c(C(N)=O)c2NC)C[C@@H]1COC | 6 | 4.3 | 1.8 | – | 6.5 | 2.2 | 0.9 | 6.1 | 7.2 | 11.2 | 19.5 | 26.3 | 12.8 | 370 | 26.8 | 519 | 1500 | 16.4 | 296 | 44.4 | Cmax [25]: 289 ng/mL; AUC(0-t) [26]: 498 ng·h/mL; bioavailability [27]: 13.1%; microsomal CLint [23]: 106 µL/min/mg; hepatocyte CLint [24]: 14.4 µL/min/1e6 cells
CCN1CCN(c2ccc(Nc3cc(N(C)C(=O)Nc4c(Cl)c(OC)cc(OC)c4Cl)ncn3)cc2)CC1 [INFIGRATINIB] | 12.4 | 7.3 | > 2280 | 28.8 | 432 | 7.6 | > 1890 | 352 | 6.2 | 10 | 352 | 777 | 218 | – | – | – | – | – | – | – | –
